Experimental data as given in patent US6620828B2, “Thiazole compounds and pharmaceutical compositions for inhibiting protein kinases and methods for their use” (Agouron Pharmaceuticals, Inc., priority 1999, dated 2003).

target: T1, FL-CHK1 (Homo sapiens, UniProt O14757); assay: CHK1 assay; format: biochemical; conditions: 20 μM; combinatorial library compounds
T1 construct: C-terminally His-tagged full-length human CHK1 (FL-CHK1); 6xHis (C); made in house; host or cells: baculovirus/insect cells
T1 sequence (O14757 1-476): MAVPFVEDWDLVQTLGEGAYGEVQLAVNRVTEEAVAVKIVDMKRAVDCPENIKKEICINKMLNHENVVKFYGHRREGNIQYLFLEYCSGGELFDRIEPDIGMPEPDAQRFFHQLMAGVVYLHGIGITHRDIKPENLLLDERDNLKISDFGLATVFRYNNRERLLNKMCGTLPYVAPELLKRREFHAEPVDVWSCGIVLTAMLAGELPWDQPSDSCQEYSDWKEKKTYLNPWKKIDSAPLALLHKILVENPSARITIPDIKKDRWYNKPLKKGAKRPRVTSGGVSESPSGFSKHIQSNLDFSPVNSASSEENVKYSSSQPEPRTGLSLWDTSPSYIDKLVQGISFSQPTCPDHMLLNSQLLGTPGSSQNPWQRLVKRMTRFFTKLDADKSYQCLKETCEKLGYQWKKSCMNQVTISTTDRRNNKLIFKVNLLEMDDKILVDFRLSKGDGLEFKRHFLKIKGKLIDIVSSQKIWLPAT
Method in brief: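 Full-length human CHK1 with C-terminal 6×His tag, made in baculovirus/insect cells, 10 nM, phosphorylating 0.125 mM Syntide-2 with 0.15 mM ATP in 50 mM Tris pH 7.5, 25 mM MgCl2, 400 mM NaCl. PK/LDH-coupled NADH oxidation read at 340 nm. Ki from initial rates over varied compound concentrations.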

Structure (SMILES)	inhibition at 20 µM [%]
CN(C)c1ccc(Nc2nc(N)c(-c3nc(-c4ccc(OC(=O)c5ccccc5)cc4)cs3)s2)cc1	5.5
CC(C)c1ccc(Nc2nc(N)c(-c3nc(-c4ccc(F)c(F)c4)cs3)s2)cc1	10.9
CN(C)c1ccc(Nc2nc(N)c(-c3nc(-c4ccc(C#N)cc4)cs3)s2)cc1	8.2
Cc1ccc(-c2csc(-c3sc(Nc4ccc(C(C)C)cc4)nc3N)n2)cc1	0.8
CC(C)c1ccc(Nc2nc(N)c(-c3nc(-c4cc5cc(Cl)ccc5o4)cs3)s2)cc1	3.4
CN(C)c1ccc(Nc2nc(N)c(-c3nc(-c4ccc5ccccc5c4)cs3)s2)cc1	19.6
CC(C)c1ccc(Nc2nc(N)c(-c3nc(-c4ccc(Cl)cc4)cs3)s2)cc1	-0.2
CC(C)c1ccc(Nc2nc(N)c(-c3nc(-c4ccc(F)cc4)cs3)s2)cc1	39.8
COc1ccc(OC)c(-c2csc(-c3sc(Nc4ccc(N(C)C)cc4)nc3N)n2)c1	14.1

Further lines, results first:

inhibition at 20 µM [%]	Structure (SMILES)
46.5	CN(C)c1ccc(Nc2nc(N)c(-c3nc(-c4ccc(O)c(O)c4)cs3)s2)cc1
-2.1	Cc1ccc(-c2csc(-c3sc(Nc4ccc(S(N)(=O)=O)cc4)nc3N)n2)cc1 [drawing 395]
-4.7	CC(C)c1ccc(Nc2nc(N)c(-c3nc(-c4cc(-c5ccccc5)no4)cs3)s2)cc1
11.2	Nc1nc(Nc2ccc(S(N)(=O)=O)cc2)sc1-c1nc(-c2ccccc2)cs1 [drawing 421]
1.1	CCOC(=O)c1cc(-c2csc(-c3sc(Nc4ccc(S(N)(=O)=O)cc4)nc3N)n2)on1
18.7	Nc1nc(Nc2ccc(S(N)(=O)=O)cc2)sc1-c1nc(-c2ccc(O)cc2)cs1 [drawing 415]

target: CDK2/Cyclin A complex (Homo sapiens, UniProt P24941); assay: CDK2/Cyclin A assay; format: biochemical; conditions: 1.0 μM; combinatorial library compounds
Method in brief: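 Radiometric assay: 150 nM CDK2/cyclin A (insect-cell CDK2, truncated cyclin A) phosphorylates His-tagged Rb fragment (residues 386-928) with 25 μM ATP plus [32P]ATP, pH 7.4 HEPES, 2% DMSO, 30 °C for 20 min. Filter-captured product counted by phosphorimager; apparent Ki from competitive or tight-binding inhibition fits.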

Structure (SMILES)	inhibition at 1 µM [%]	CDK2 % Inhibition at 1.0 μM [%]
CN(C)c1ccc(Nc2nc(N)c(-c3nc(-c4ccc(OC(=O)c5ccccc5)cc4)cs3)s2)cc1	8.7	–
CC(C)c1ccc(Nc2nc(N)c(-c3nc(-c4ccc(F)c(F)c4)cs3)s2)cc1	21.2	–
CN(C)c1ccc(Nc2nc(N)c(-c3nc(-c4ccc(C#N)cc4)cs3)s2)cc1	14.3	–
Cc1ccc(-c2csc(-c3sc(Nc4ccc(C(C)C)cc4)nc3N)n2)cc1	14.2	–
CC(C)c1ccc(Nc2nc(N)c(-c3nc(-c4cc5cc(Cl)ccc5o4)cs3)s2)cc1	17	–
CN(C)c1ccc(Nc2nc(N)c(-c3nc(-c4ccc5ccccc5c4)cs3)s2)cc1	26.9	–
CC(C)c1ccc(Nc2nc(N)c(-c3nc(-c4ccc(Cl)cc4)cs3)s2)cc1	10.8	–
CC(C)c1ccc(Nc2nc(N)c(-c3nc(-c4ccc(F)cc4)cs3)s2)cc1	16.1	–
COc1ccc(OC)c(-c2csc(-c3sc(Nc4ccc(N(C)C)cc4)nc3N)n2)c1	15.6	–

Other lines, results leading:

inhibition at 1 µM [%]	CDK2 % Inhibition at 1.0 μM [%]	Structure (SMILES)
16.8	–	CN(C)c1ccc(Nc2nc(N)c(-c3nc(-c4ccc(O)c(O)c4)cs3)s2)cc1
20.5	–	Cc1ccc(-c2csc(-c3sc(Nc4ccc(S(N)(=O)=O)cc4)nc3N)n2)cc1 [drawing 395]
2.4	–	CC(C)c1ccc(Nc2nc(N)c(-c3nc(-c4cc(-c5ccccc5)no4)cs3)s2)cc1
–	8.2	Nc1nc(Nc2ccc(S(N)(=O)=O)cc2)sc1-c1nc(-c2ccccc2)cs1 [drawing 421]
29.8	–	CCOC(=O)c1cc(-c2csc(-c3sc(Nc4ccc(S(N)(=O)=O)cc4)nc3N)n2)on1
57.9	–	Nc1nc(Nc2ccc(S(N)(=O)=O)cc2)sc1-c1nc(-c2ccc(O)cc2)cs1 [drawing 415]

target: T2, CDK4/Cyclin D3 complex (Homo sapiens, UniProt P11802); assay: CDK4/Cyclin D assay; format: biochemical; conditions: 1.0 μM; combinatorial library compounds
T2 construct: made in house; host or cells: insect cells co-infected with baculovirus vectors
Experimental: CDK4/Cyclin D Construct for Assay: A complex of human CDK4 and cyclin D3, or a complex of cyclin DI and a fusion protein of human CDK4 and glutathione-S-transferase (GST-CDK4), was purified using traditional biochemical chromatographic techniques from insect cells that had been co-infected with the corresponding baculovirus expression vectors.
CDK2/Cyclin A and CDK4/Cyclin D Assays
Cyclin-dependent kinase activity was measured by quantifying the enzyme-catalyzed, time-dependent incorporation of radioactive phosphate from [^32P]ATP into a recombinant fragment of the retinoblastoma protein. Unless noted otherwise, assays were performed in 96-well plates in a total volume of 50 μL, in the presence of 10 mM HEPES (N-[2-hydroxyethyl]piperazine-N′-[2-ethanesulfonic acid]) (pH 7.4), 10 mM MgCl2, 25 μM adenosine triphosphate (ATP), 1 mg/mL ovalbumin, 5 μg/mL leupeptin, 1 mM dithiothreitol, 10 mM β-glycerophosphate, 0.1 mM sodium vanadate, 1 mM sodium fluoride, 2.5 mM ethylene glycol-bis(β-aminoethyl ether)-N,N,N′N′-tetraacetic acid (EGTA), 2% (v/v) dimethylsulfoxide, and 0.03-0.2 μCi [^32P]ATP. The substrate (0.3-0.5 μg) was purified recombinant retinoblastoma protein fragment (Rb) (residues 386-928 of the native retinoblastoma protein; 62.3 kDa, containing the majority of the phosphorylation sites found in the native 106-kDa protein, as well as a tag of six histidine residues for ease of purification). Reactions were initiated with CDK2 (150 nM CDK2/Cyclin A complex) or CDK4 (50 nM CDK4/Cyclin D3 complex), incubated at 30° C., and terminated after 20 minutes by the addition of ethylenediaminetetraacetic acid EDTA) to 250 mM. The phosphorylated substrate was then captured on a nitrocellulose membrane using a 96-well filtration manifold, and unincorporated radioactivity was removed by repeated washing with 0.85% phosphoric acid. Radioactivity was quantified by exposing the dried nitrocellulose membranes to a phosphorimager. Apparent Ki values were measured by assaying enzyme activity in the presence of different compound concentrations and subtracting the background radioactivity measured in the absence of enzyme. The kinetic parameters (kcat, Km for ATP) were measured for each enzyme under the usual assay conditions by determining the dependence of initial rates on ATP concentration. The data were fit to an equation for competitive inhibition using Kaleidagraph (Synergy Software), or were fit to an equation for competitive tight-binding inhibition using the software KineTic (BioKin, Ltd.). Measured Ki values for known inhibitors against CDK4 and CDK2 agreed with published IC50 values. The specific activity of CDK4 was the same whether complexed to full-length cyclin D3 or the truncated Cyclin D3 construct; both complexes also yielded very similar Ki values for selected inhibitors.

T2 sequence (P11802 whole entry): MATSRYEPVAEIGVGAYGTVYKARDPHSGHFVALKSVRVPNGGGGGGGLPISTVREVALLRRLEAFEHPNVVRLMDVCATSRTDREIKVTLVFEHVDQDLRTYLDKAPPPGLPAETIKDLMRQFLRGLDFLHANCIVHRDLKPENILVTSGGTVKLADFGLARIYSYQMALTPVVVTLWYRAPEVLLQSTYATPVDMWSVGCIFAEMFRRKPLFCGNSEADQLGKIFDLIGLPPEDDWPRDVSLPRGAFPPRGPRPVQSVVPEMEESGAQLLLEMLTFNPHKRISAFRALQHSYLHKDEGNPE
T2 sequence (P30281 whole entry partner): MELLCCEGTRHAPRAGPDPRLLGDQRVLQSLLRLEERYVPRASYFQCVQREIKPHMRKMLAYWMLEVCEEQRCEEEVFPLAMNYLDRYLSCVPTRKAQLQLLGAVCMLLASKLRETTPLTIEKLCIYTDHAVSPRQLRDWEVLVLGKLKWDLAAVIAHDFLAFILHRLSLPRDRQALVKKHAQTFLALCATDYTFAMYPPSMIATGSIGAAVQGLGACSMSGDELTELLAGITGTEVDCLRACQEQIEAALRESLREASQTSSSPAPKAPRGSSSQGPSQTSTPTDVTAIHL

Structure (SMILES)	inhibition at 1 µM [%]	CDK4 % Inhibition at 1.0 μM [%]
CN(C)c1ccc(Nc2nc(N)c(-c3nc(-c4ccc(OC(=O)c5ccccc5)cc4)cs3)s2)cc1	49.4	–
CC(C)c1ccc(Nc2nc(N)c(-c3nc(-c4ccc(F)c(F)c4)cs3)s2)cc1	39.5	–
CN(C)c1ccc(Nc2nc(N)c(-c3nc(-c4ccc(C#N)cc4)cs3)s2)cc1	36.4	–
Cc1ccc(-c2csc(-c3sc(Nc4ccc(C(C)C)cc4)nc3N)n2)cc1	55.9	–
CC(C)c1ccc(Nc2nc(N)c(-c3nc(-c4cc5cc(Cl)ccc5o4)cs3)s2)cc1	33.2	–
CN(C)c1ccc(Nc2nc(N)c(-c3nc(-c4ccc5ccccc5c4)cs3)s2)cc1	45.5	–
CC(C)c1ccc(Nc2nc(N)c(-c3nc(-c4ccc(Cl)cc4)cs3)s2)cc1	53.1	–
CC(C)c1ccc(Nc2nc(N)c(-c3nc(-c4ccc(F)cc4)cs3)s2)cc1	80.7	–
COc1ccc(OC)c(-c2csc(-c3sc(Nc4ccc(N(C)C)cc4)nc3N)n2)c1	68.7	–

Continued, values first:

inhibition at 1 µM [%]	CDK4 % Inhibition at 1.0 μM [%]	Structure (SMILES)
53	–	CN(C)c1ccc(Nc2nc(N)c(-c3nc(-c4ccc(O)c(O)c4)cs3)s2)cc1
-9.6	–	Cc1ccc(-c2csc(-c3sc(Nc4ccc(S(N)(=O)=O)cc4)nc3N)n2)cc1 [drawing 395]
50.4	–	CC(C)c1ccc(Nc2nc(N)c(-c3nc(-c4cc(-c5ccccc5)no4)cs3)s2)cc1
–	−33.4	Nc1nc(Nc2ccc(S(N)(=O)=O)cc2)sc1-c1nc(-c2ccccc2)cs1 [drawing 421]
-13	–	CCOC(=O)c1cc(-c2csc(-c3sc(Nc4ccc(S(N)(=O)=O)cc4)nc3N)n2)on1
51.3	–	Nc1nc(Nc2ccc(S(N)(=O)=O)cc2)sc1-c1nc(-c2ccc(O)cc2)cs1 [drawing 415]

target: T3, phosphorylated VEGF-R2Δ50 (FLVK-P) (Homo sapiens, UniProt P35968, DEL940-989/E990V); assay: VEGF-R2 coupled spectrophotometric (FLVK-P) assay; format: biochemical; conditions: read-out: VEGF % inhibition at 20 μM, 20 μM; combinatorial library compounds
T3 construct: VEGF-R2Δ50 contains residues 806-939 and 990-1171; made in house; host or cells: baculovirus/insect cells
Method in brief: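 Baculovirus-expressed human VEGF-R2Δ50 (residues 806-939/990-1171, E990V) was autophosphorylated with 3 mM ATP, 40 mM MgCl2 for 2 h at 4° C. ADP formation was coupled via PK/LDH to NADH oxidation, read at 340 nm, with 5.1 mM poly(E4Y1), 1 mM ATP, 25 mM MgCl2, Hepes pH 7.5. Ki came from activity across compound concentrations.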

T3 sequence (P35968 with tags, fused parts or gaps DEL940-989/E990V limits assumed): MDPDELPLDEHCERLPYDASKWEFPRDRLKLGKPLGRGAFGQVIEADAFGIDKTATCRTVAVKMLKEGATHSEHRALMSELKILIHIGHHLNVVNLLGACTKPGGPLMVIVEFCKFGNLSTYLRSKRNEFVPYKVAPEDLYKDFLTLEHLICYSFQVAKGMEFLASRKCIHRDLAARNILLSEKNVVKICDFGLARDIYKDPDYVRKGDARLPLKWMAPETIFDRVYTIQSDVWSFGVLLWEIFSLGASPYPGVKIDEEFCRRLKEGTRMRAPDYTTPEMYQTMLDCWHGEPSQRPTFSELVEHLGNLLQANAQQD

Structure (SMILES)	inhibition at 20 µM [%]
CN(C)c1ccc(Nc2nc(N)c(-c3nc(-c4ccc(OC(=O)c5ccccc5)cc4)cs3)s2)cc1	-4
CC(C)c1ccc(Nc2nc(N)c(-c3nc(-c4ccc(F)c(F)c4)cs3)s2)cc1	5
CN(C)c1ccc(Nc2nc(N)c(-c3nc(-c4ccc(C#N)cc4)cs3)s2)cc1	11
Cc1ccc(-c2csc(-c3sc(Nc4ccc(C(C)C)cc4)nc3N)n2)cc1	-2
CC(C)c1ccc(Nc2nc(N)c(-c3nc(-c4cc5cc(Cl)ccc5o4)cs3)s2)cc1	-11
CN(C)c1ccc(Nc2nc(N)c(-c3nc(-c4ccc5ccccc5c4)cs3)s2)cc1	5
CC(C)c1ccc(Nc2nc(N)c(-c3nc(-c4ccc(Cl)cc4)cs3)s2)cc1	-2
CC(C)c1ccc(Nc2nc(N)c(-c3nc(-c4ccc(F)cc4)cs3)s2)cc1	48
COc1ccc(OC)c(-c2csc(-c3sc(Nc4ccc(N(C)C)cc4)nc3N)n2)c1	13

Continued, values first:

inhibition at 20 µM [%]	Structure (SMILES)
34	CN(C)c1ccc(Nc2nc(N)c(-c3nc(-c4ccc(O)c(O)c4)cs3)s2)cc1
33	Cc1ccc(-c2csc(-c3sc(Nc4ccc(S(N)(=O)=O)cc4)nc3N)n2)cc1 [drawing 395]
13	CC(C)c1ccc(Nc2nc(N)c(-c3nc(-c4cc(-c5ccccc5)no4)cs3)s2)cc1
23	Nc1nc(Nc2ccc(S(N)(=O)=O)cc2)sc1-c1nc(-c2ccccc2)cs1 [drawing 421]
3	CCOC(=O)c1cc(-c2csc(-c3sc(Nc4ccc(S(N)(=O)=O)cc4)nc3N)n2)on1
56	Nc1nc(Nc2ccc(S(N)(=O)=O)cc2)sc1-c1nc(-c2ccc(O)cc2)cs1 [drawing 415]
